Results as given in ChEMBL document CHEMBL3885861, “Open TG-GATES”.

Organism: Rattus norvegicus
Test: Open TG-GATES - Regimen: Daily Repeat
Assay type: toxicity, organism-based, Sprague-Dawley
Set-up: regimen Daily Repeat, gender Male, age 6 weeks
Settings: in vivo, po, route gavage; for APTT / Bas / Eos / Fbg / Hb / Ht / Lym / MCH / MCHC / MCV / Mono / Neu / PT / Plat / RBC / Ret / WBC: tissue Blood; for KIDNEY_L / KIDNEY_R / KIDNEY_TOTAL: tissue Kidney; for LIVER: tissue Liver; for A/G / ALP / ALT / AST / BUN / CRE / Ca / Cl / DBIL / GLC / IP / K / LDH / Na / PL / RALB / TBIL / TC / TG / TP / gamma-GTP: tissue Plasma
[1] = 0 mg/kg, 72 h, dose level Control, time 3 day
[2] = 0 mg/kg, […], dose level Control, time 7 day
[3] = 0 mg/kg, […], dose level Control, time 14 day
[4] = 0 mg/kg, […], dose level Control, time 28 day
[5] = 30 mg/kg, 72 h, dose level Low, time 3 day
[6] = 30 mg/kg, […], dose level Low, time 7 day
[7] = 30 mg/kg, […], dose level Low, time 14 day
[8] = 30 mg/kg, […], dose level Low, time 28 day

CCOC(=O)C(C)(C)Oc1ccc(Cl)cc1 [CLOFIBRATE]
TERMINAL_BW [1]: 239.8 g
APTT [1]: 20.7 s
Bas [1]: 0%
Eos [1]: 1%
Fbg [1]: 221 mg/dL
Hb [1]: 13.8 g/dL
Ht [1]: 39.5%
Lym [1]: 75%
MCH [1]: 21.3 pg
MCHC [1]: 34.9%
MCV [1]: 61.1 fL
Mono [1]: 3.2%
Neu [1]: 20.2%
PT [1]: 12.2 s
Plat [1]: 124.2 x10_4/uL
RBC [1]: 646.2 x10_4/ul
Ret [1]: 5.4%
WBC [1]: 98 x10_2/uL
KIDNEY_L [1]: 1 g
KIDNEY_R [1]: 1.1 g
KIDNEY_TOTAL [1]: 2.1 g
LIVER [1]: 12 g
A/G [1]: 1.6
ALP [1]: 881.8 IU/L
ALT [1]: 37.4 IU/L
AST [1]: 68 IU/L
BUN [1]: 14 mg/dL
CRE [1]: 0.4 mg/dL
Ca [1]: 11.1 mg/dL
Cl [1]: 102 meq/L
DBIL [1]: 0.088 mg/dL
GLC [1]: 194.2 mg/dL
IP [1]: 7 mg/dL
K [1]: 4.1 meq/L
LDH [1]: 230.6 IU/L
Na [1]: 140.6 meq/L
PL [1]: 162.4 mg/dL
RALB [1]: 3.5 g/dL
TBIL [1]: 0.1 mg/dL
TC [1]: 78 mg/dL
TG [1]: 137.2 mg/dL
TP [1]: 5.6 g/dL
gamma-GTP [1]: 1.2 IU/L
TERMINAL_BW [2]: 268.6 g
TERMINAL_BW [3]: 332 g
TERMINAL_BW [4]: 392.8 g
APTT [2]: 20.7 s
Bas [2]: 0%
Eos [2]: 0.8%
Fbg [2]: 238 mg/dL
Hb [2]: 14.4 g/dL
Ht [2]: 41%
Lym [2]: 81.6%
MCH [2]: 21.4 pg
MCHC [2]: 35.2%
MCV [2]: 60.8 fL
Mono [2]: 2.6%
Neu [2]: 14.6%
PT [2]: 11.8 s
Plat [2]: 118.2 x10_4/uL
RBC [2]: 675.8 x10_4/ul
Ret [2]: 5.1%
WBC [2]: 104.1 x10_2/uL
APTT [3]: 19 s
Bas [3]: 0%
Eos [3]: 0.8%
Fbg [3]: 227.2 mg/dL
Hb [3]: 14.3 g/dL
Ht [3]: 41.2%
Lym [3]: 80.4%
MCH [3]: 20.3 pg
MCHC [3]: 34.6%
MCV [3]: 58.5 fL
Mono [3]: 3%
Neu [3]: 15%
PT [3]: 12.3 s
Plat [3]: 118.5 x10_4/uL
RBC [3]: 704.8 x10_4/ul
Ret [3]: 4.4%
WBC [3]: 137.8 x10_2/uL
APTT [4]: 21.1 s
Bas [4]: 0%
Eos [4]: 1%
Fbg [4]: 219.4 mg/dL
Hb [4]: 15.2 g/dL
Ht [4]: 43.2%
Lym [4]: 81.4%
MCH [4]: 19.3 pg
MCHC [4]: 35.3%
MCV [4]: 54.9 fL
Mono [4]: 2.6%
Neu [4]: 14.4%
PT [4]: 12 s
Plat [4]: 119.8 x10_4/uL
RBC [4]: 786.6 x10_4/ul
Ret [4]: 2.1%
WBC [4]: 108.2 x10_2/uL
KIDNEY_L [2]: 1.1 g
KIDNEY_R [2]: 1.1 g
KIDNEY_TOTAL [2]: 2.2 g
KIDNEY_L [3]: 1.3 g
KIDNEY_R [3]: 1.3 g
KIDNEY_TOTAL [3]: 2.6 g
KIDNEY_L [4]: 1.4 g
KIDNEY_R [4]: 1.4 g
KIDNEY_TOTAL [4]: 2.8 g
LIVER [2]: 12.5 g
LIVER [3]: 14.9 g
LIVER [4]: 16 g
A/G [2]: 1.6
ALP [2]: 994.8 IU/L
ALT [2]: 33.8 IU/L
AST [2]: 64.6 IU/L
BUN [2]: 16.6 mg/dL
CRE [2]: 0.4 mg/dL
Ca [2]: 10.5 mg/dL
Cl [2]: 102.2 meq/L
DBIL [2]: 0.098 mg/dL
GLC [2]: 213.2 mg/dL
IP [2]: 7.2 mg/dL
K [2]: 3.8 meq/L
LDH [2]: 192.2 IU/L
Na [2]: 138.8 meq/L
PL [2]: 144.8 mg/dL
RALB [2]: 3.6 g/dL
TBIL [2]: 0.2 mg/dL
TC [2]: 70.2 mg/dL
TG [2]: 122 mg/dL
TP [2]: 5.8 g/dL
gamma-GTP [2]: 0.6 IU/L
A/G [3]: 1.3
ALP [3]: 852.2 IU/L
ALT [3]: 37.4 IU/L
AST [3]: 62 IU/L
BUN [3]: 16.2 mg/dL
CRE [3]: 0.4 mg/dL
Ca [3]: 10.6 mg/dL
Cl [3]: 101 meq/L
DBIL [3]: 0.082 mg/dL
GLC [3]: 209.4 mg/dL
IP [3]: 7 mg/dL
K [3]: 3.8 meq/L
LDH [3]: 155 IU/L
Na [3]: 140.4 meq/L
PL [3]: 148 mg/dL
RALB [3]: 3.4 g/dL
TBIL [3]: 0.1 mg/dL
TC [3]: 74.2 mg/dL
TG [3]: 118.4 mg/dL
TP [3]: 5.9 g/dL
gamma-GTP [3]: 0.8 IU/L
A/G [4]: 1.4
ALP [4]: 622.2 IU/L
ALT [4]: 31.2 IU/L
AST [4]: 57.4 IU/L
BUN [4]: 15.2 mg/dL
CRE [4]: 0.4 mg/dL
Ca [4]: 10.4 mg/dL
Cl [4]: 102.6 meq/L
DBIL [4]: 0.08 mg/dL
GLC [4]: 207.2 mg/dL
IP [4]: 5.9 mg/dL
K [4]: 3.8 meq/L
LDH [4]: 154.6 IU/L
Na [4]: 140.8 meq/L
PL [4]: 145.6 mg/dL
RALB [4]: 3.5 g/dL
TBIL [4]: 0.1 mg/dL
TC [4]: 66.8 mg/dL
TG [4]: 124.4 mg/dL
TP [4]: 6.1 g/dL
gamma-GTP [4]: 0.8 IU/L
TERMINAL_BW [5]: 242 g
APTT [5]: 20.9 s
Bas [5]: 0%
Eos [5]: 1%
Fbg [5]: 226 mg/dL
Hb [5]: 13.3 g/dL
Ht [5]: 38%
Lym [5]: 80.8%
MCH [5]: 21.4 pg
MCHC [5]: 35%
MCV [5]: 61.1 fL
Mono [5]: 3.2%
Neu [5]: 15%
PT [5]: 12.5 s
Plat [5]: 131.1 x10_4/uL
RBC [5]: 622.4 x10_4/ul
Ret [5]: 5%
WBC [5]: 108.6 x10_2/uL
KIDNEY_L [5]: 1 g
KIDNEY_R [5]: 1 g
KIDNEY_TOTAL [5]: 2.1 g
LIVER [5]: 12 g
A/G [5]: 1.6
ALP [5]: 1135 IU/L
ALT [5]: 42.4 IU/L
AST [5]: 72.2 IU/L
BUN [5]: 14.8 mg/dL
CRE [5]: 0.4 mg/dL
Ca [5]: 10.9 mg/dL
Cl [5]: 102 meq/L
DBIL [5]: 0.098 mg/dL
GLC [5]: 200.8 mg/dL
IP [5]: 6.3 mg/dL
K [5]: 4 meq/L
LDH [5]: 265.2 IU/L
Na [5]: 140.2 meq/L
PL [5]: 141 mg/dL
RALB [5]: 3.4 g/dL
TBIL [5]: 0.1 mg/dL
TC [5]: 67.6 mg/dL
TG [5]: 112.2 mg/dL
TP [5]: 5.6 g/dL
gamma-GTP [5]: 0.6 IU/L
TERMINAL_BW [6]: 265.8 g
TERMINAL_BW [7]: 333.8 g
TERMINAL_BW [8]: 411.4 g
APTT [6]: 20.2 s
Bas [6]: 0%
Eos [6]: 0.8%
Fbg [6]: 223.4 mg/dL
Hb [6]: 14.1 g/dL
Ht [6]: 39.7%
Lym [6]: 82%
MCH [6]: 21.9 pg
MCHC [6]: 35.5%
MCV [6]: 61.6 fL
Mono [6]: 2.6%
Neu [6]: 14.2%
PT [6]: 12 s
Plat [6]: 124.1 x10_4/uL
RBC [6]: 643.8 x10_4/ul
Ret [6]: 4.4%
WBC [6]: 88.1 x10_2/uL
APTT [7]: 20.1 s
Bas [7]: 0%
Eos [7]: 1%
Fbg [7]: 219.4 mg/dL
Hb [7]: 13.9 g/dL
Ht [7]: 40.8%
Lym [7]: 78.4%
MCH [7]: 20 pg
MCHC [7]: 34%
MCV [7]: 58.9 fL
Mono [7]: 3.2%
Neu [7]: 17.2%
PT [7]: 12.3 s
Plat [7]: 131 x10_4/uL
RBC [7]: 694.6 x10_4/ul
Ret [7]: 4.8%
WBC [7]: 146.7 x10_2/uL
APTT [8]: 20.8 s
Bas [8]: 0%
Eos [8]: 1%
Fbg [8]: 222 mg/dL
Hb [8]: 14.8 g/dL
Ht [8]: 42.7%
Lym [8]: 81.8%
MCH [8]: 18.5 pg
MCHC [8]: 34.7%
MCV [8]: 53.4 fL
Mono [8]: 2.6%
Neu [8]: 14.2%
PT [8]: 12.4 s
Plat [8]: 119.1 x10_4/uL
RBC [8]: 800 x10_4/ul
Ret [8]: 2.2%
WBC [8]: 140.9 x10_2/uL
KIDNEY_L [6]: 1.1 g
KIDNEY_R [6]: 1.1 g
KIDNEY_TOTAL [6]: 2.2 g
KIDNEY_L [7]: 1.3 g
KIDNEY_R [7]: 1.3 g
KIDNEY_TOTAL [7]: 2.6 g
KIDNEY_L [8]: 1.5 g
KIDNEY_R [8]: 1.5 g
KIDNEY_TOTAL [8]: 3 g
LIVER [6]: 12.4 g
LIVER [7]: 16 g
LIVER [8]: 16.9 g
A/G [6]: 1.6
ALP [6]: 883.2 IU/L
ALT [6]: 35.8 IU/L
AST [6]: 72 IU/L
BUN [6]: 16 mg/dL
CRE [6]: 0.4 mg/dL
Ca [6]: 10.4 mg/dL
Cl [6]: 103.2 meq/L
DBIL [6]: 0.07 mg/dL
GLC [6]: 213 mg/dL
IP [6]: 6.8 mg/dL
K [6]: 3.5 meq/L
LDH [6]: 245 IU/L
Na [6]: 141.4 meq/L
PL [6]: 127 mg/dL
RALB [6]: 3.6 g/dL
TBIL [6]: 0.1 mg/dL
TC [6]: 60 mg/dL
TG [6]: 96 mg/dL
TP [6]: 5.8 g/dL
gamma-GTP [6]: 0.8 IU/L
A/G [7]: 1.4
ALP [7]: 845.6 IU/L
ALT [7]: 32.4 IU/L
AST [7]: 56.8 IU/L
BUN [7]: 16.4 mg/dL
CRE [7]: 0.4 mg/dL
Ca [7]: 10.4 mg/dL
Cl [7]: 101.4 meq/L
DBIL [7]: 0.088 mg/dL
GLC [7]: 229.8 mg/dL
IP [7]: 7 mg/dL
K [7]: 4 meq/L
LDH [7]: 183.4 IU/L
Na [7]: 140.2 meq/L
PL [7]: 145.6 mg/dL
RALB [7]: 3.4 g/dL
TBIL [7]: 0.1 mg/dL
TC [7]: 64.8 mg/dL
TG [7]: 135 mg/dL
TP [7]: 5.8 g/dL
gamma-GTP [7]: 0.8 IU/L
A/G [8]: 1.4
ALP [8]: 741.4 IU/L
ALT [8]: 41 IU/L
AST [8]: 68.4 IU/L
BUN [8]: 14.6 mg/dL
CRE [8]: 0.4 mg/dL
Ca [8]: 10.3 mg/dL
Cl [8]: 102.2 meq/L
DBIL [8]: 0.084 mg/dL
GLC [8]: 207.8 mg/dL
IP [8]: 6.1 mg/dL
K [8]: 3.9 meq/L
LDH [8]: 165.8 IU/L
Na [8]: 140.4 meq/L
PL [8]: 134 mg/dL
RALB [8]: 3.4 g/dL
TBIL [8]: 0.1 mg/dL
TC [8]: 61.6 mg/dL
TG [8]: 121.6 mg/dL
TP [8]: 5.9 g/dL
gamma-GTP [8]: 0.8 IU/L
